Measurements taken from ChEMBL document CHEMBL4138146, “A Schmidt rearrangement-mediated synthesis of novel tetrahydro-benzo[1,4]diazepin-5-ones as potential anticancer and antiprotozoal agents” (Eur J Med Chem, 2017).

Legend:
Assay type in all cases: functional
[1] = system: HT-29; test: Growth inhibition of human HT-29 cells incubated for 48 hrs by sulforhodamine B assay; conditions: HT-29, 48 h
[2] = system: OVCAR-4; test: Growth inhibition of human OVCAR4 cells incubated for 48 hrs by sulforhodamine B assay; conditions: OVCAR-4, 48 h
[3] = system: ACHN; test: Growth inhibition of human ACHN cells incubated for 48 hrs by sulforhodamine B assay
[4] = system: HOP-92; test: Growth inhibition of human HOP92 cells assessed as cell growth at 10 uM incubated for 48 hrs by sulforhodamine B assay relative to control; conditions: HOP-92, 48 h, read-out: Activity
[5] = system: EKVX; test: Growth inhibition of human EKVX cells assessed as cell growth at 10 uM incubated for 48 hrs by sulforhodamine B assay relative to control; conditions: read-out: Activity
[6] = system: SK-OV-3; test: Growth inhibition of human SKOV3 cells assessed as cell growth at 10 uM incubated for 48 hrs by sulforhodamine B assay relative to control; conditions: SK-OV-3, 48 h, read-out: Activity
[7] = system: K562; test: Growth inhibition of human K562 cells assessed as cell growth at 10 uM incubated for 48 hrs by sulforhodamine B assay relative to control; conditions: K562, 48 h, read-out: Activity
[8] = system: SF-295; test: Growth inhibition of human SF295 cells assessed as cell growth at 10 uM incubated for 48 hrs by sulforhodamine B assay relative to control; conditions: SF-295, 48 h, read-out: Activity
[9] = system: HCT-15; test: Growth inhibition of human HCT15 cells assessed as cell growth at 10 uM incubated for 48 hrs by sulforhodamine B assay relative to control; conditions: HCT-15, 48 h, read-out: Activity
[10] = system: SNB-75; test: Growth inhibition of human SNB75 cells assessed as cell growth at 10 uM incubated for 48 hrs by sulforhodamine B assay relative to control; conditions: SNB-75, 48 h, read-out: Activity
[11] = system: UACC-257; test: Growth inhibition of human UACC257 cells assessed as cell growth at 10 uM incubated for 48 hrs by sulforhodamine B assay relative to control; conditions: UACC-257, 48 h, read-out: Activity
[12] = system: HL-60(TB); test: Growth inhibition of human HL-60(TB) cells assessed as cell growth at 10 uM incubated for 48 hrs by sulforhodamine B assay relative to control; conditions: HL-60, 48 h, read-out: Activity
[13] = system: SK-MEL-28; test: Growth inhibition of human SK-MEL-28 cells assessed as cell growth at 10 uM incubated for 48 hrs by sulforhodamine B assay relative to control; conditions: SK-MEL-28, 48 h, read-out: Activity
[14] = system: ACHN; test: Growth inhibition of human ACHN cells assessed as cell growth at 10 uM incubated for 48 hrs by sulforhodamine B assay relative to control; conditions: read-out: Activity
[15] = system: TK-10; test: Growth inhibition of human TK10 cells assessed as cell growth at 10 uM incubated for 48 hrs by sulforhodamine B assay relative to control; conditions: TK-10, 48 h, read-out: Activity
[16] = system: OVCAR-5; test: Growth inhibition of human OVCAR5 cells assessed as cell growth at 10 uM incubated for 48 hrs by sulforhodamine B assay relative to control; conditions: OVCAR-5, 48 h, read-out: Activity
[17] = system: OVCAR-4; test: Growth inhibition of human OVCAR4 cells assessed as cell growth at 10 uM incubated for 48 hrs by sulforhodamine B assay relative to control; conditions: OVCAR-4, 48 h, read-out: Activity
[18] = system: Hs-578T; test: Growth inhibition of human Hs 578T cells assessed as cell growth at 10 uM incubated for 48 hrs by sulforhodamine B assay relative to control; conditions: read-out: Activity
[19] = system: MDA-MB-435; test: Growth inhibition of human MDA-MB-435 cells assessed as cell growth at 10 uM incubated for 48 hrs by sulforhodamine B assay relative to control; conditions: MDA-MB-435, 48 h, read-out: Activity
[20] = system: MCF7; test: Growth inhibition of human MCF7 cells assessed as cell growth at 10 uM incubated for 48 hrs by sulforhodamine B assay relative to control; conditions: MCF7, 48 h, read-out: Activity
[21] = system: SK-MEL-5; test: Growth inhibition of human SK-MEL-5 cells assessed as cell growth at 10 uM incubated for 48 hrs by sulforhodamine B assay relative to control; conditions: SK-MEL-5, 48 h, read-out: Activity
[22] = system: HOP-62; test: Growth inhibition of human HOP62 cells assessed as cell growth at 10 uM incubated for 48 hrs by sulforhodamine B assay relative to control; conditions: HOP-62, 48 h, read-out: Activity
[23] = system: SF-539; test: Growth inhibition of human SF539 cells assessed as cell growth at 10 uM incubated for 48 hrs by sulforhodamine B assay relative to control; conditions: SF-539, 48 h, read-out: Activity
[24] = system: COLO 205; test: Growth inhibition of human COLO205 cells assessed as cell growth at 10 uM incubated for 48 hrs by sulforhodamine B assay relative to control; conditions: COLO 205, 48 h, read-out: Activity
[25] = system: SR; test: Growth inhibition of human SR cells assessed as cell growth at 10 uM incubated for 48 hrs by sulforhodamine B assay relative to control; conditions: read-out: Activity
[26] = system: DU-145; test: Growth inhibition of human DU145 cells assessed as cell growth at 10 uM incubated for 48 hrs by sulforhodamine B assay relative to control; conditions: DU-145, 48 h, read-out: Activity
[27] = system: IGROV-1; test: Growth inhibition of human IGROV1 cells assessed as cell growth at 10 uM incubated for 48 hrs by sulforhodamine B assay relative to control; conditions: IGROV-1, 48 h, read-out: Activity
[28] = system: CAKI-1; test: Growth inhibition of human Caki1 cells assessed as cell growth at 10 uM incubated for 48 hrs by sulforhodamine B assay relative to control; conditions: CAKI-1, 48 h, read-out: Activity
[29] = system: NCI-H226; test: Growth inhibition of human NCI-H226 cells assessed as cell growth at 10 uM incubated for 48 hrs by sulforhodamine B assay relative to control; conditions: NCI-H226, 48 h, read-out: Activity

COc1cccc2c1C(=O)c1c(O)c3c(c(O)c1C2=O)C[C@@](O)(C(=O)CO)C[C@@H]3O[C@H]1C[C@H](N)[C@H](O)[C@H](C)O1 [DOXORUBICIN]
GI50 [1]: 120 nM | GI50 [2]: 370 nM | GI50 [3]: 80 nM | CC50 ([3]; read-out: LC50 (the source's name)): 100000 nM

Cc1cccc2cc(C3CNC(=O)c4ccccc4N3)c(=O)[nH]c12 (stereo not given)
growth at 10 µM [4]: 94.9% | growth at 10 µM [5]: 98.4% | growth at 10 µM [6]: 96.9% | growth at 10 µM [7]: 118% | growth at 10 µM [8]: 98.8% | growth at 10 µM [9]: 102% | growth at 10 µM [10]: 86.5% | growth at 10 µM [11]: 100% | growth at 10 µM [12]: 116% | growth at 10 µM [13]: 102% | growth at 10 µM [14]: 98.6% | growth at 10 µM [15]: 94.6% | growth at 10 µM [16]: 102% | growth at 10 µM [17]: 92.1% | growth at 10 µM [18]: 105% | growth at 10 µM [19]: 106% | growth at 10 µM [20]: 98.8% | growth at 10 µM [21]: 102% | growth at 10 µM [22]: 89.6% | growth at 10 µM [23]: 94.9% | growth at 10 µM [24]: 108% | growth at 10 µM [25]: 110% | growth at 10 µM [26]: 109% | growth at 10 µM [27]: 106% | growth at 10 µM [28]: 100% | growth at 10 µM [29]: 85.6%
